Like-named read-outs stand apart in the source and are kept apart here.
Key:
BACE1 = molecular target: T1, BACE1 (Homo sapiens, UniProt P56817); experiment: Cellular Aβ-lowering assay (Abeta 40 AlphaLISA, HEK293 APP cells); assay type: cell-based; conditions: 18-20 hrs incubation, Aβ 40 in culture supernatant, read-out: BACE1 cell act. Aβ40 IC50
T1 construct: endogenous in cells; host or cells: HEK293 APP cells
Procedure: Cellular Aβ-Lowering Assay:
The Abeta 40 AlphaLISA Assay can be used. The HEK293 APP cells were seeded in 96 well Microtiter plates in cell culture medium (Iscove's, plus 10% (v/v) fetal bovine serum, penicillin/streptomycin) to about 80% confluency and the compounds were added at a 3× concentration in ⅓ volume of culture medium (final DMSO concentration was kept at 1% v/v). After 18-20 hrs incubation at 37° C. and 5% CO2 in a humidified incubator, the culture supernatants were harvested for the determination of Aβ 40 concentrations using Perkin-Elmer Human Amyloid beta 1-40 (high specificity) Kit (Cat#AL275C).
In a Perkin-Elmer White Optiplate-384 (Cat#6007290), 2 ul culture supernatants were combined with 2 μl of a 10× AlphaLISA Anti-hAβAcceptor beads + Biotinylated Antibody Anti-Aβ 1-40 Mix (50 μg/mL/5 nM). After 1 hour room temperature incubation, 16 μl of a 1.25× preparation of Streptavidin (SA) Donor beads (25 μg/mL) were added and incubated for 30 minutes in the Dark. Light Emission at 615 nm was then recorded using EnVision-Alpha Reader. Levels of Aβ 40 in the culture supernatants were calculated as percentage of maximum signal (cells treated with 1% DMSO without inhibitor). The IC50 values were calculated using the Excel XLfit software.

[1] = molecular target: T2, recombinant human cathepsin E (Homo sapiens, UniProt P14091); experiment: Cathepsin E fluorescent substrate kinetic assay; assay type: biochemical; conditions: pH 4.5, substrate MR121-CKLVFFAEDW
T2 construct: purchased R&D Systems
T2 sequence (P14091 54-396): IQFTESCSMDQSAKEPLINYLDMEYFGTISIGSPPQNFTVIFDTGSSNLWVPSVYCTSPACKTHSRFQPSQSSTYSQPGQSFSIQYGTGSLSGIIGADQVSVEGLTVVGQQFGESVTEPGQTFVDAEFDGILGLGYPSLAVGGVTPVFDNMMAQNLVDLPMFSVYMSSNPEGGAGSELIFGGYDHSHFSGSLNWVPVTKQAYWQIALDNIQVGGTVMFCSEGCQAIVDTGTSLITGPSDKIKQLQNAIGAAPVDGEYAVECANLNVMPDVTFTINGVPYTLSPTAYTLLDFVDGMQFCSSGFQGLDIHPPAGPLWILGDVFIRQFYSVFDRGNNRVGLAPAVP
From the text: (§1) Cathepsin D and Cathepsin E Fluorescent Substrate Kinetic Assays
(§2) The MR121 fluorescence assays described below are based on the fact that MR121 forms a non-fluorescent ground state complex with tryptophan. In solution this formation occurs at millimolar concentrations of tryptophan. The mechanism can be used to design a generic biochemical assay for proteases. A substrate peptide is labeled at the N-terminus with tryptophan and at the C-terminus with the fluorophore MR121 (for cathepsin D the 10 amino acid peptide WTSVLMAAPC-MR121 was used; for cathepsin E, MR121-CKLVFFAEDW was used). In absence of protease activity, the substrates remain intact and the MR121 fluorescence is reduced by the high local Trp-concentration. If the substrates are cleaved by the enzymes the MR121 fluorescence is recovered.
(§3) The fluorescent substrate cathepsin D and cathepsin E kinetic assays were performed at room temperature in 384-well microtiter plates (black with clear flat bottom, non-binding surface plates from Corning) in a final volume of 51 μl. The test compounds were serially diluted in DMSO (15 concentrations, ⅓ dilution steps) and 1 μl of diluted compounds were mixed for 10 min with 40 μl of cathepsin D (from human liver, Calbiochem) diluted in assay buffer (100 mM sodium acetate, 0.05% BSA, pH 5.5; final concentration:200 nM) or with 40 μl of recombinant human cathepsin E (R&D Systems) diluted in assay buffer (100 mM sodium acetate, 0.05% BSA, pH 4.5; final concentration:0.01 nM). After addition of 10 μl of the cathepsin D substrate WTSVLMAAPC-MR121 diluted in cathepsin D assay buffer (final concentration:300 nM) or 10 μl of the cathepsin E substrate MR121-CKLVFFAEDW diluted in cathepsin E assay buffer (final concentration:300 nM), the plates were strongly shaken for 2 minutes. The enzymatic reaction was followed in a plate: vision reader (Perkin Elmer) (excitation wavelength:630 nm; emission:695 nm) for at least 30 minutes in a kinetic measurement detecting an increase of MR121 fluorescence during the reaction time. The slope in the linear range of the kinetic was calculated and the IC50 of the test compounds were determined using a four parameter equation for curve fitting.

[2] = molecular target: T3, cathepsin D (from human liver) (Homo sapiens, UniProt P07339); experiment: Cathepsin D fluorescent substrate kinetic assay; assay type: biochemical; conditions: pH 5.5, substrate WTSVLMAAPC-MR121
T3 construct: cathepsin D (from human liver, Calbiochem) diluted in assay buffer; purchased Calbiochem; host or cells: human liver
T3 sequence (P07339 65-162 limits assumed): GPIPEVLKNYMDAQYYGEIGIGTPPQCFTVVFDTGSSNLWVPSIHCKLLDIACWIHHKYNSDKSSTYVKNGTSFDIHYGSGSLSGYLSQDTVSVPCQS
T3 sequence (P07339 169-412 limits assumed): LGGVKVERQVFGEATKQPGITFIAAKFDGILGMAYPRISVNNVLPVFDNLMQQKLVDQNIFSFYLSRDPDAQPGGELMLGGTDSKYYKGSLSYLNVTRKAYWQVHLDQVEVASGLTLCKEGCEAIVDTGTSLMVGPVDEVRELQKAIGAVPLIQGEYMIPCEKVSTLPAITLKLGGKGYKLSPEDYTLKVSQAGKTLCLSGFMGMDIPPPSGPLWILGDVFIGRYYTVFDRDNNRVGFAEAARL
From the text: as §1, §2, §3

CYP3A4 = molecular target: T4, CYP3A4 (Homo sapiens, UniProt P08684); experiment: CYP inhibition assay, human liver microsomes; assay type: in vitro ADME
T4 construct: 0.2 mg/ml pooled human liver microsomes; from tissue; host or cells: pooled human liver microsomes
T4 sequence (P08684 whole entry): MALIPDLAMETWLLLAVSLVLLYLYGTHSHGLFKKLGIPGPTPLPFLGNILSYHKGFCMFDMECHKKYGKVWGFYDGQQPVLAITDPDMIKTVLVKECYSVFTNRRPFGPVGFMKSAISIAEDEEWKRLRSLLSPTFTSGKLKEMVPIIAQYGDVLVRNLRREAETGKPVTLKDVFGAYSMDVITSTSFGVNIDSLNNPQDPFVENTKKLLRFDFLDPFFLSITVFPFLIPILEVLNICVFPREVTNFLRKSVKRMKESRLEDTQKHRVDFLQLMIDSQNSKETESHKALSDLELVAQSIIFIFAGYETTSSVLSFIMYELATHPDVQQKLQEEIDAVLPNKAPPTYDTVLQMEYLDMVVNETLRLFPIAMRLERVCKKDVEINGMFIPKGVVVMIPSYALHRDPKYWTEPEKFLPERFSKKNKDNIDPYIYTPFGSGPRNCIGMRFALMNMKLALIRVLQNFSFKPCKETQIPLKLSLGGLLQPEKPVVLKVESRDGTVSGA
Procedure: (§4) Inhibition of cytochromes P450 (CYPs) 2C9, 2D6 and 3A4 was assessed using human liver microsomes and CYP-selective substrate metabolism reactions. 50 μl incubations were made up containing (finally) 0.2 mg/ml pooled human liver microsomes, 5 μM substrate (diclofenac for CYP2C9 [4′hydroxylase], dextromethorphan for CYP2D6 [O-demethylase] or midazolam for CYP3A4 [1′hydroxylase]), 0.25 μL DMSO containing test inhibitor and NADPH regenerating system. Test inhibitor concentrations of 50, 16.7, 5.6, 1.9, 0.6 and 0.2 μM were assessed in singlicate. Incubations were prewarmed to 37° C. for 10 minutes before initiation by addition of NADPH regenerating system. Incubations were quenched after 5 minutes (20 minutes for dextromethorphan) by addition of 50 μl cold acetonitrile containing 20 ng/ml 4-OH-diclofenac-13C6, 20 ng/mL dextrorphan-D3 and 20 ng/mL 1-OH-midazolam-D4. Quenched incubates were stored at −20° C. for at least 1 hour before centrifugation (20,000× g, 20 minutes). Supernatants were removed and diluted 1:1 with water prior to analysis using a RapidFire sample injector system and API4000 mass spectrometer. Peak areas for substrate, metabolite and stable-labelled metabolite standard were determined using MS/MS. The peak area ratios between the metabolite generated by the enzymatic reaction and the internal standard were used in subsequent calculations. The percentage of (DMSO) control activity was calculated for each incubate and IC50 values estimated by non-linear regression. Sulfaphenazole, quinidine or ketoconazole were tested in each CYP2C9, CYP2D6 or CYP3A4 inhibition experiment, respectively, to ensure assay sensitivity and reproducibility. (Validated assays for human cytochrome P450 activities, R. L. Walsky and R. S. Obach, Drug Metabolism and Disposition 32: 647-660, 2004. and S. Fowler and H. Zhang, The AAPS Journal, Vol. 10, No. 2, 410-424, 2008)

CYP2D6 = molecular target: T5, CYP2D6 (Homo sapiens, UniProt P10635); experiment: CYP inhibition assay, human liver microsomes; assay type: in vitro ADME
T5 construct: 0.2 mg/ml pooled human liver microsomes; from tissue; host or cells: pooled human liver microsomes
T5 sequence (P10635 whole entry): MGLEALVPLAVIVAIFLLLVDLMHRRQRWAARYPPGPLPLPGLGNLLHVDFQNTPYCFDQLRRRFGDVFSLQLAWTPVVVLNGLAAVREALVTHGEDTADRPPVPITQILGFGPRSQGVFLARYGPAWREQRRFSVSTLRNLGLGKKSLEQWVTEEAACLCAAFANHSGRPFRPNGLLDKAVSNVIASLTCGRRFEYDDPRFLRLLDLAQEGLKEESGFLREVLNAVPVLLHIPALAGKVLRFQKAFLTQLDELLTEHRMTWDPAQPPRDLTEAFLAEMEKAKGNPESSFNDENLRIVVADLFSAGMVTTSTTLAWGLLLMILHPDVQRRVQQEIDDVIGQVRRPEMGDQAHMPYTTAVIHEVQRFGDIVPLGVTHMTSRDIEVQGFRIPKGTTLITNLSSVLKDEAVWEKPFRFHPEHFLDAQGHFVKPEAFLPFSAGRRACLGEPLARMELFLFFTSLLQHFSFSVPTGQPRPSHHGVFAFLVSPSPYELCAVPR
Procedure: as §4

CYP2C9 = molecular target: T6, CYP2C9 (Homo sapiens, UniProt P11712); experiment: CYP inhibition assay, human liver microsomes; assay type: in vitro ADME
T6 construct: 0.2 mg/ml pooled human liver microsomes; from tissue; host or cells: pooled human liver microsomes
T6 sequence (P11712 whole entry): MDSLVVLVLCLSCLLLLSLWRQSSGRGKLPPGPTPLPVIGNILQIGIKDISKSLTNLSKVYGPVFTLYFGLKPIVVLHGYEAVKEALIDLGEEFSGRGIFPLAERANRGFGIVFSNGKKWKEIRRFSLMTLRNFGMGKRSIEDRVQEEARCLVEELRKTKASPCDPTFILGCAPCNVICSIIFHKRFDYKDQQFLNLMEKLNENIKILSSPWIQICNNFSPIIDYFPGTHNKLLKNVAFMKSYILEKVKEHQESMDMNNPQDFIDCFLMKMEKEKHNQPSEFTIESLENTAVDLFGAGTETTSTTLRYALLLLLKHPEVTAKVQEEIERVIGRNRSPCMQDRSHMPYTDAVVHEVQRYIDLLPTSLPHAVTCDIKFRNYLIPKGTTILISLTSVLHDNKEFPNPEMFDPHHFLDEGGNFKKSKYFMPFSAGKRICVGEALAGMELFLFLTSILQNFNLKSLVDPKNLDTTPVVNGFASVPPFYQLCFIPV
Procedure: as §4

[3] = GSH human, in vitro adduct formation; assay type: in vitro ADME; set-up: key: NF = in vitro no significant adduct formation relative to control; conditions: in vitro adduct formation relative to control
[4] = human liver microsomes, substrate dextromethorphan, read-out: CYP IC50 2D6
[5] = human liver microsomes, substrate diclofenac, read-out: CYP IC50 2C9

T1 sequence (P56817 46-501): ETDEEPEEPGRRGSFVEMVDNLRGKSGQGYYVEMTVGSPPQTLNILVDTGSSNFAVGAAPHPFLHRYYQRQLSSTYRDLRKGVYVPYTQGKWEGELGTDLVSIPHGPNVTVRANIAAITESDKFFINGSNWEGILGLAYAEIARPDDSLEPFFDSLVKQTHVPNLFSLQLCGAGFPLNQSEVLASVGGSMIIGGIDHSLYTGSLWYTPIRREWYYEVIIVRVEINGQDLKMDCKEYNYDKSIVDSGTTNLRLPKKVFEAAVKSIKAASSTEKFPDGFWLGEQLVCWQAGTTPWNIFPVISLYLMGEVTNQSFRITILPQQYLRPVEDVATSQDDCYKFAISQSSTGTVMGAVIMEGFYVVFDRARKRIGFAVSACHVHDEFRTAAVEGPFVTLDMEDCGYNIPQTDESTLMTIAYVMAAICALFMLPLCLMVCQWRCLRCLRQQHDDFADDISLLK

Row | IC50 (BACE1) [µM] | IC50 [1] [µM] | IC50 [2] [µM] | IC50 (CYP3A4; human liver microsomes, substrate midazolam, read-out: CYP IC50 3A4) [µM] | IC50 (CYP2D6; [4]) [µM] | IC50 (CYP2C9; [5]) [µM] | GSH human [3] | SMILES | IC50 (CYP3A4) [µM] | IC50 (CYP2D6) [µM] | IC50 (CYP2C9) [µM]
1 | 0.008 | 56 | 45 | > 10 | > 10 | > 10 | – | COc1cnc(-c2cc(-c3ccc(F)c([C@]4(C)C[S@@](=N)(=O)C(C)(C)C(N)=N4)c3)on2)cn1 [Example 41, (1R,3R)-5-amino-3-(2-fluoro-5-(3-(5-methoxypyrazin-2-yl)isoxazol-5-yl)phenyl)-1-imino-3,6,6-trimethyl-3,6-dihydro-2H-1,4-thiazine 1-oxide] | – | – | –
2 | 0.095 | 139 | 75 | – | > 10 | > 10 | NF | CN=[S@]1(=O)C[C@@](CF)(c2cc(-c3cc(-c4ncc(Cl)cn4)no3)ccc2F)N=C(N)C1(C)C [Example 1, (1S,3S)-5-amino-3-(5-(3-(5-chloropyrimidin-2-yl)isoxazol-5-yl)-2-fluorophenyl)-3-(fluoromethyl)-6,6-dimethyl-1-(methylimino)-3,6-dihydro-2H-1,4-thiazine 1-oxide 2,2,2-trifluoroacetate] | – | – | –

Row | SMILES | IC50 (BACE1) [µM] | IC50 [1] [µM] | IC50 [2] [µM] | IC50 (CYP3A4; human liver microsomes, substrate midazolam, read-out: CYP IC50 3A4) [µM] | IC50 (CYP2D6; [4]) [µM] | IC50 (CYP2C9; [5]) [µM] | GSH human [3] | IC50 (CYP3A4) [µM] | IC50 (CYP2D6) [µM] | IC50 (CYP2C9) [µM]
3 | CN=[S@@]1(=O)C[C@@](C)(c2cc(-c3cc(-c4ncc(Cl)cn4)no3)ccc2F)N=C(N)C12CCCC2 [Example 28, (6R,8R)-10-amino-8-(5-(3-(5-chloropyrimidin-2-yl)isoxazol-5-yl)-2-fluorophenyl)-8-methyl-6-(methylimino)-6-thia-9-azaspiro[4.5]dec-9-ene 6-oxide 2,2,2-trifluoroacetate] | 0.007 | 7 | 16 | – | – | – | – | > 10 | > 10 | > 10

Reference: patent US10047081B2, “BACE1 inhibitors” (Hoffmann-La Roche Inc., priority 2015, dated 2018)
